From BindingDB's records for patent US20250091994 (Kobe University, 2025)

Target: GTPase HRas [G12V] (Homo sapiens, UniProt P01112, G12V)
Test: In Vitro Ras-Raf Binding Inhibitory Activity Assay
Method: The in vitro Ras-Raf binding inhibitory activity of the compound of the present invention was evaluated by an ELISA method described below. GST-c-Raf-1 RBD diluted with a Ras-Raf binding buffer (50 mM Tris-HCl pH7.4, 150 mM NaCl, 5 mM MgCl2, 1 mM EDTA, and 1% Triton-X100) was added to each well of a glutathione-coated 96-well plate (Thermo Fisher Scientific.), and was incubated at 30° C. for 1 hour, to immobilize Raf on the well. The unbound free Raf was eliminated by washing the well with the Ras-Raf binding buffer three times. Subsequently, GTPTS-bound HRasG12V diluted with the Ras-Raf binding buffer and each compound solution (final DMSO concentration: 10%) were applied to each well, and the resulting mixture was then incubated at 30° C. for 1 hour, so that Ras and Raf were allowed to bind to each other. Thereafter, the plate was washed with the Ras-Raf binding buffer twice, and was then subjected to a blocking treatment at room temperature for 20 minutes, using TBS-Tween {10 mM Tris-HCl pH 7.4, 150 mM NaCl, and 0.05% (w/v) Tween-20}-5% (w/v) bovine serum albumin (BSA). After that, an anti-HRas antibody (C-20, Santa Cruz) or an anti-HRas antibody (259, Santa Cruz), which had been 1000 times diluted with TBS-Tween-5% BSA, was added to the reaction mixture, and incubated at room temperature for 1 hours. After the treatment with the primary antibody, the plate was washed with TBS-Tween-5% BSA three times, and a horseradish peroxidase-labeled secondary antibody against rabbit immunoglobulin G (GE Healthcare) of 1000 times diluted with TBS-Tween-5% BSA, was added to the plate, followed by incubation at room temperature for 1 hour. After the treatment with the secondary antibody, the plate was washed with TBS-Tween-5% BSA three times, and a substrate solution (TMB) was then added to the plate, followed by incubation at room temperature for 15 minutes for coloration. Finally, 2 M H2SO4 was added to stop color development (coloration reaction kit: Nacalai Tesque).

GTPase HRas [G12V], sequence (P01112 whole entry G12V, looked up): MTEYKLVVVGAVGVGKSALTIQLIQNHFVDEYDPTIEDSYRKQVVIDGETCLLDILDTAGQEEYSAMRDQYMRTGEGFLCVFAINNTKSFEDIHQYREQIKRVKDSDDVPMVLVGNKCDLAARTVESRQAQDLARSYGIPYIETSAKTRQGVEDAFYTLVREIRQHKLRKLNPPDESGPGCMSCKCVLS

Row | Structure (SMILES) | IC50 [nM]
1 | CC(=O)N1/C(=C\c2ccc(OCC(=O)N3CCOCC3)cn2)C(=O)c2ccccc21 [US20250091994, Example 22] | 13000
2 | CC(=O)N1CCc2c(cccc2-c2cc(/C=C3/C(=O)c4ccccc4N3C(C)=O)nc3ccccc23)C1 [US20250091994, Example 193] | 700
3 | COc1cc(/C=C2/C(=O)c3ccccc3N2C(C)=O)ccc1/C=C/C(N)=O [US20250091994, Example 20] | 10000
4 | CC(=O)N1CCCC(c2cc(/C=C3/C(=O)c4ccccc4N3C(C)=O)nc3ccc(C(=O)N4CCOCC4)cc23)C1 (stereo unspecified) [US20250091994, Example 179] | 1000
5 | COc1cc(C=C2C(=O)c3cccc(F)c3N2C(C)=O)ccc1OCC(=O)N1CCOCC1 [US20250091994, Example 105] | 20000
6 | COc1cc(/C=C2/C(=O)c3ccccc3N2C(C)=O)ccc1OCC(N)=O [US20250091994, Example 1] | 6900
7 | CC(=O)N1C(=Cc2cc(-c3cccc4ccccc34)c3cc(C(=O)N4CCOCC4)ccc3n2)C(=O)c2ccccc21 [US20250091994, Example 118] | 730
8 | CCCCOc1cc(/C=C2/C(=O)c3ccccc3N2C(C)=O)nc2ccc(C(=O)N3CCOCC3)cc12 [US20250091994, Example 84] | 580
9 | CC(=O)N1/C(=C/c2nc3ccc(C(=O)N4CC(C)OC(C)C4)cc3s2)C(=O)c2ccccc21 (stereo unspecified) [US20250091994, Example 101] | 780
10 | COc1cc(/C=C2/C(=O)c3cc(F)ccc3N2C(C)=O)ccc1OCC(=O)N1CCOCC1 [US20250091994, Example 50] | 12000
11 | CCn1cc(-c2cc(/C=C3/C(=O)c4ccccc4N3C(C)=O)nc3ccc(C(=O)N4CCOCC4)cc23)cn1 [US20250091994, Example 178] | 800
12 | CC(=O)N1/C(=C\c2cc(-c3ncccn3)c3cc(C(=O)N4CCOCC4)ccc3n2)C(=O)c2ccccc21 [US20250091994, Example 189] | 1500
13 | COc1cc(/C=C2/C(=O)c3ccccc3N2C(C)=O)ccc1OS(C)(=O)=O [US20250091994, Example 21] | 7200
14 | CC(=O)N1C(=Cc2cc(-c3ccc(Oc4ccccc4)cc3)c3cc(C(=O)N4CCOCC4)ccc3n2)C(=O)c2ccccc21 [US20250091994, Example 92] | 2800
15 | CC(=O)N1C(=Cc2ccc(OCC(N)=O)c(Cl)c2)C(=O)c2ccccc21 [US20250091994, Example 17] | 9600
16 | CC(=O)N1/C(=C\c2cc(-c3cccc(-c4cnn(C)c4)c3)c3cc(C(=O)N4CCOCC4)ccc3n2)C(=O)c2ccccc21 [US20250091994, Example 149] | 300
17 | CC(=O)N1/C(=C\c2ccc3cc(CNC(=O)CN4CCOCC4)ccc3n2)C(=O)c2ccccc21 [US20250091994, Example 80] | 900
18 | CC(=O)NCc1cccc2c1C(=O)/C(=C/c1ccc3cc(C(=O)N4CCOCC4)ccc3n1)N2C(C)=O [US20250091994, Example 106] | 4100
19 | CC(=O)N1CCc2ccc(-c3cc(/C=C4/C(=O)c5ccccc5N4C(C)=O)nc4ccc(CNC5CCOCC5)cc34)cc2C1 [US20250091994, Example 211] | 600
20 | CC(=O)N1/C(=C\c2cc(On3nnc4cccnc43)c3cc(C(=O)N4CCOCC4)ccc3n2)C(=O)c2ccccc21 [US20250091994, Example 112] | 550
21 | CC(=O)N1/C(=C\c2cc(Cl)c3cc(C(=O)N4CCOCC4)ccc3n2)C(=O)c2ccccc21 [US20250091994, Example 82] | 610
22 | COc1cc(C=C2C(=O)c3ccccc3N2C(C)=O)ccc1OCCO [US20250091994, Example 125] | 2800
23 | CC(=O)N1/C(=C\c2cc(C#N)c3cc(C(=O)N4CCOCC4)ccc3n2)C(=O)c2ccccc21 [US20250091994, Example 86] | 1800
24 | CCOc1cc(/C=C2/C(=O)c3ccccc3N2C(C)=O)ccc1OCC(N)=O [US20250091994, Example 13] | 2500

Further compounds by falling IC50, results first:

Row | IC50 [nM] | Structure (SMILES)
25 | 13000 | CC(=O)N1C(=Cc2ccc(OCC(=O)N3CCOCC3)c(-c3ccccc3)c2)C(=O)c2ccccc21 [US20250091994, Example 29]
26 | 8500 | CCOC(=O)N1C(=Cc2ccc(OCC(=O)N3CCOCC3)c(OC)c2)C(=O)c2ccccc21 [US20250091994, Example 123]
27 | 7300 | COc1cc(/C=C2/C(=O)c3ccccc3N2C(C)=O)ccc1OCC(=O)Nc1ccccc1 [US20250091994, Example 15]
28 | 6400 | CC(=O)N1/C(=C/c2nc(C(=O)N3CCOCC3)cs2)C(=O)c2ccccc21 [US20250091994, Example 55]
29 | 5700 | COc1cc(/C=C2/C(=O)c3ccccc3N2C(C)=O)ccc1OCC(=O)N1CCCC1 [US20250091994, Example 14]
30 | 4000 | CC(=O)N1/C(=C\c2nc3ccc(C(=O)N4CCOCC4)cc3s2)C(=O)c2ccccc21 [US20250091994, Example 59]
31 | 2400 | CC(=O)N1/C(=C\c2ccc3cc(OCC(=O)N4CCOCC4)ccc3n2)C(=O)c2ccccc21 [US20250091994, Example 65]
32 | 2300 | CC(=O)N1/C(=C/c2ncc(C(=O)N3CCOCC3)s2)C(=O)c2ccccc21 [US20250091994, Example 68]
33 | 2100 | COc1cc(/C=C2/C(=O)c3cccnc3N2C(C)=O)ccc1OCC(=O)N1CCOCC1 [US20250091994, Example 51]
34 | 2100 | CC(=O)N1/C(=C\c2ccc3c(-c4cnn(C)c4)c(C(=O)N4CCOCC4)ccc3n2)C(=O)c2ccccc21 [US20250091994, Example 199]
35 | 2100 | CC(=O)N1/C(=C\c2ccc3cc(CN(C(C)=O)C4CCOCC4)ccc3n2)C(=O)c2ccccc21 [US20250091994, Example 75]
36 | 1600 | CC(=O)N1/C(=C\c2ccc3cc(CN(C4CCOCC4)S(C)(=O)=O)ccc3n2)C(=O)c2ccccc21 [US20250091994, Example 76]
37 | 1400 | CC(=O)N1C(=Cc2cc(CN3CCOCC3=O)c3ccccc3n2)C(=O)c2ccccc21 [US20250091994, Example 183]
38 | 900 | CC(=O)N1C(=Cc2cc(-c3ccc4c(c3)CCNC4=O)c3ccccc3n2)C(=O)c2ccccc21 [US20250091994, Example 190]
39 | 800 | CC(=O)N1/C(=C\c2cc(-c3ccccc3-c3cnn(C)c3)c3cc(C(=O)N4CCOCC4)ccc3n2)C(=O)c2ccccc21 [US20250091994, Example 196]
40 | 800 | CC(=O)N1/C(=C\c2cc(-c3cnn(C)c3)c3ccccc3n2)C(=O)c2ccccc21 [US20250091994, Example 177]
41 | 700 | CC(=O)N1/C(=C/c2nc3ccc(C(=O)N4CCOCC4)cc3s2)C(=O)c2ccccc21 [US20250091994, Example 58]
42 | 580 | CC(=O)N1/C(=C\c2cc(-c3cccnc3)c3cc(C(=O)N4CCOCC4)ccc3n2)C(=O)c2ccccc21 [US20250091994, Example 85]
43 | 420 | CC(=O)N1/C(=C/c2nc3cc(/C=C/C(=O)N4CCOCC4)ccc3s2)C(=O)c2ccccc21 [US20250091994, Example 110]
44 | 400 | CC(=O)N1CCc2cc(-c3cc(/C=C4/C(=O)c5ccccc5N4C(C)=O)nc4ccc(CNC5CCOCC5)cc34)ccc2C1 [US20250091994, Example 209]
45 | 350 | COCC(O)CN1CCN(C(=O)c2ccc3nc(/C=C4/C(=O)c5ccccc5N4C(C)=O)cc(-c4ccccc4-c4ccccc4)c3c2)CC1 (stereo unspecified) [US20250091994, Example 96]
46 | 300 | CC(=O)N1/C(=C/c2cc(-c3cccc(-c4cn[nH]c4)c3)c3cc(C(=O)N4CCOCC4)ccc3n2)C(=O)c2ccccc21 [US20250091994, Example 148]
